The values that follow are results of earlier work, collected in patent US6642243B1, “Migraine medicine and method for treating same” (priority 1999, dated 2003).

For one data set, the system named is cerebral blood flow. Particulars: in humans.
The next data set has as its system migraine patients. Particulars: pretreatment with 2 mg/kg; p<0.05.
For data set [1], the system named is individuals who take these agents. The conditions noted are these: treatment and prophylaxis of migraines.

As for `Cn1c(=O)c2c(ncn2C)n(C)c1=O` [Caffeine, caffeine], in the data set with cerebral blood flow, the cerebral blood flow entry is “reduce cerebral blood flow”. `CN[C@@H](C)[C@@H](O)c1ccccc1` [Pseudoephedrine, pseudoephedrine]: in the data set on migraine patients, the “effects of increased postural hypotension seen in migraine patients versus normal patients” value is reported as “abolished” and the “effects of lower blood pressure after sustained handgrip seen in migraine patients versus normal patients” value is “abolished”. For `C[C@@H](CO)NC(=O)[C@@H]1C=C2c3cccc4[nH]cc(c34)C[C@H]2N(C)C1` [ergonovine], the “significant toxicity, share of the individuals who take these agents” value in data set [1] was around 40%.

On to `CC[C@@H](CO)NC(=O)[C@@H]1C=C2c3cccc4c3c(cn4C)C[C@H]2N(C)C1` [methysergide], for which, in data set [1], the “significant toxicity, share of the individuals who take these agents” value is recorded as around 40%.
